A word on the melting point: it is the temperature of the solid-liquid transition.

Regarding `N#Cc1nn(-c2c(Cl)cc(C(F)(F)F)cc2Cl)c(N)c1C1CC1(Br)Br` (stereo not drawn), the melting point lay within 178 to 179 °C. As to `COC(=O)c1cccc(-c2c(C#N)nn(-c3c(Cl)cc(C(F)(F)F)cc3Cl)c2N)c1`, the melting point is 214 to 216 °C. In the case of `N#Cc1nn(-c2c(Cl)cc(C(F)(F)F)cc2Cl)c(N)c1-c1ccc(Cl)cc1`, the melting point lay within 235 to 237 °C. `N#Cc1nn(-c2c(Cl)cc(C(F)(F)F)cc2Cl)c(N)c1-c1ccoc1`: the melting point was 180 to 181 °C. Next, `N#Cc1nn(-c2c(Cl)cc(C(F)(F)F)cc2Cl)c(N)c1-c1ccc(SC(F)(F)F)s1`: 162 to 163 °C; `N#Cc1nn(-c2c(Cl)cc(C(F)(F)F)cc2Cl)c(N)c1-c1cccs1`: 206 to 207 °C; `N#Cc1nn(-c2c(Cl)cc(C(F)(F)F)cc2Cl)c(N)c1-c1ccoc1[S+]([O-])C(F)(F)F` (stereo not drawn): 141 to 142 °C. Molecule `N#Cc1nn(-c2c(Cl)cc(C(F)(F)F)cc2Cl)c(N)c1-c1ccc(F)cc1` registered a melting point of 222 to 223 °C. `N#Cc1nn(-c2c(Cl)cc(C(F)(F)F)cc2Cl)c(N)c1-c1cccnc1` came in with a melting point of 265 to 267 °C. Next, `COc1ccc(-c2c(C#N)nn(-c3c(Cl)cc(C(F)(F)F)cc3Cl)c2N)cc1`: 222 °C; `N#Cc1nn(-c2c(Cl)cc(C(F)(F)F)cc2Cl)c(N)c1-c1ccc(Br)s1`: 214 °C. Regarding `Cc1ccccc1-c1c(C#N)nn(-c2c(Cl)cc(C(F)(F)F)cc2Cl)c1N`, the melting point was in the range of 199 to 202 °C. `N#Cc1nn(-c2c(Cl)cc(C(F)(F)F)cc2Cl)c(N)c1-c1cc(Cl)cc(Cl)c1` returned a melting point of 228 to 230 °C. Next, `N#Cc1nn(-c2c(Cl)cc(C(F)(F)F)cc2Cl)c(N)c1-c1ccc(Br)cc1`: 242 to 244 °C; `N#Cc1nn(-c2c(Cl)cc(C(F)(F)F)cc2Cl)c(N)c1-c1cccc(N)c1`: 187 °C. `COc1ccc(-c2c(C#N)nn(-c3c(Cl)cc(C(F)(F)F)cc3Cl)c2N)cc1OC`: the melting point was 250 °C. In turn, `N#Cc1nn(-c2c(Cl)cc(C(F)(F)F)cc2Cl)c(N)c1-c1cc(Br)no1` registered a melting point of 227 °C. As to `N#Cc1nn(-c2c(Cl)cc(C(F)(F)F)cc2Cl)c(N)c1-c1ccccc1C(F)(F)F`, the melting point was in the range of 210 to 212 °C. Then `N#Cc1nn(-c2c(Cl)cc(C(F)(F)F)cc2Cl)c(N)c1-c1cc(Cl)oc1Cl`, with 193 to 194 °C; and `N#Cc1nn(-c2c(Cl)cc(C(F)(F)F)cc2Cl)c(N)c1-c1ccncc1`, with 266 to 268 °C (dec.).

Molecule `N#Cc1nn(-c2c(Cl)cc(C(F)(F)F)cc2Cl)c(N)c1-c1ccccc1` registered a melting point of 198 to 199 °C. For `N#Cc1nn(-c2c(Cl)cc(C(F)(F)F)cc2Cl)c(N)c1-c1cccc(F)c1`, the melting point worked out at 164 °C. The molecule `Cc1ccc(-c2c(C#N)nn(-c3c(Cl)cc(C(F)(F)F)cc3Cl)c2N)cc1` came in with a melting point of 243 to 244 °C. For the molecule `N#Cc1nn(-c2c(Cl)cc(C(F)(F)F)cc2Cl)c(N)c1-c1cccc(Cl)c1`, the melting point is 161 to 162 °C. Regarding `N#Cc1nn(-c2c(Cl)cc(C(F)(F)F)cc2Cl)c(N)c1-c1ccsc1`, the melting point was in the range of 210 to 212 °C. In turn, `Cc1nc(-c2c(C#N)nn(-c3c(Cl)cc(C(F)(F)F)cc3Cl)c2N)cs1` gave a melting point of 226 to 228 °C.

For `N#Cc1nn(-c2c(Cl)cccc2Cl)c(N)c1-c1ccco1`, the melting point was determined as 222.6 °C. In turn, `COc1ccccc1-c1c(C#N)nn(-c2c(Cl)cc(C(F)(F)F)cc2Cl)c1N` returned a melting point of 193 °C. `N#Cc1nn(-c2c(Cl)cc(C(F)(F)F)cc2Cl)c(N)c1-c1ccc(C(F)(F)F)o1`: the melting point fell in the range of 148 to 151 °C. As for `N#Cc1nn(-c2c(Cl)cc(C(F)(F)F)cc2Cl)c(N)c1-c1ccc2c(c1)OCO2`, the melting point was determined as 222 °C.

With `N#Cc1nn(-c2c(Cl)cc(C(F)(F)F)cc2Cl)c(N)c1-c1ccc(F)c(Cl)c1`, the melting point fell in the range of 197 to 198 °C.

`N#Cc1nn(-c2c(Cl)cc(C(F)(F)F)cc2Cl)c(N)c1-c1ccccc1Cl` displayed a melting point of 192 to 193 °C.

For `N#Cc1nn(-c2c(Cl)cc(C(F)(F)F)cc2Cl)c(N)c1-c1cccc2ccccc12`, the melting point came to 208 °C. Consider `N#Cc1nn(-c2c(Cl)cc(C(F)(F)F)cc2Cl)c(N)c1-c1ccccc1F`, for which the melting point stood at 197 °C. With `N#Cc1nn(-c2c(Cl)cc(C(F)(F)F)cc2Cl)c(N)c1-c1onc(Br)c1Br`, the melting point turned out to be 279 °C. On to `N#Cc1nn(-c2c(Cl)cc(C(F)(F)F)cc2Cl)c(N)c1-c1cccc([N+](=O)[O-])c1`, for which the melting point was 212 to 214 °C.

Source of the values: patent publication US20050096354A1 (published 2005).
